Results published in US20240197683A1 (JIANGSU UNIVERSITY, priority 2023, published 2024).
Structures can show the parent of a compound that is named as a salt. Where two headings read alike, the source gives them in different places.

Columns and labels:
[1] = system: mice with LPS-induced sepsis; conditions: 20 mg/kg LPS i.p.; for average survival time: LPS group 28.8±6.22 h
Description: Method: A mouse model of sepsis was induced by intraperitoneal injection of different toxic doses of 5 mg/kg, 10 mg/kg and 20 mg/kg LPS, and the effects of different doses of LPS on the survival rate of mice with sepsis were observed.
Sepsis was induced by intraperitoneal injection of 5 mg/kg, 10 mg/kg and 20 mg/kg LPS. […] Sepsis was induced by intraperitoneal injection of 20 mg/kg LPS.

[2] = system: TLR-4/MyD88/NF-κB signaling pathway; experiment: Related gene expression in lung tissues of mice with sepsis; type: in vivo; conditions: after treatment and prevention
From the text: The differences are of statistical significance.

[3] = system: mice with LPS-induced sepsis; experiment: Edema in organs (wet/dry weight ratio) of mice with sepsis; type: in vivo; conditions: prevention
cytokine-infused rats = conditions: cited from earlier work
[4] = system: mice with sepsis-related acute lung injury; experiment: Efficacy of HucMSC-NVs loaded with ergothioneine in sepsis-related acute lung injury; type: in vivo; conditions: FIG. 11 A-C
From the text: Referring to FIG. 11, three classical inflammatory factors (IL-1β, IL-6, and TNF-α) in BALF are shown in panels A-C.

A549 cells = conditions: co-treatment with TNF-α or H2O2; cited from earlier work
[5] = system: IL-6, IL-1β and TNF-α in mouse serum; experiment: Inflammatory factors in blood of mice with sepsis at different time points; type: in vivo
[6] = system: mice with sepsis-related acute lung injury; experiment: Sepsis-related acute lung injury in mice (BALF, leakage, arterial oxygen); type: in vivo
From the text: Comparisons of data between the four groups are of statistical significance.
Changes in the protein content of mouse BALF, the Evans blue content and the wet/dry weight ratio are shown. […] There is a downward trend in the arterial partial pressure of oxygen in all the injury group mice relative to the normal mice.

[7] = prevention: tail vein injection 1 h before 20 mg/kg LPS i.p., FIG. 3
[8] = treatment: tail vein injection 2 h after 20 mg/kg LPS i.p., FIG. 4

SMILES: C[N+](C)(C)[C@@H](Cc1c[nH]c(=S)[nH]1)C(=O)[O-] [ergothioneine, (S)-α-Carboxy-N,N,N-trimethyl-2-mercapto-1H-imidazole-4-ethanaminium inner salt]
- average survival time ([1]; 5 mg/kg ergothioneine): 41.4 ± 10.48 h
- average survival time ([1]; 10 mg/kg ergothioneine): 44.4 ± 3.921 h
- mortality in mice with sepsis ([1]; FIG. 2): reduced mortality
- average survival time ([1]; 50 mg/kg ergothioneine): 46.8 ± 2.68 h
- mice died ([1]; prevention, 5 mg/kg ergothioneine): 2 mice
- mice died ([1]; prevention, 10 mg/kg ergothioneine): 3 mice
- mice died ([1]; prevention, 20 mg/kg ergothioneine): all
- mice died ([1]; prevention, 50 mg/kg ergothioneine): 1 mouse
- mice died ([1]; treatment, 5 mg/kg ergothioneine): all
- mice died ([1]; treatment, 10 mg/kg ergothioneine): all
- mice died ([1]; treatment, 20 mg/kg ergothioneine): 4 mice
- mice died ([1]; treatment, 50 mg/kg ergothioneine): 3 mice
- TLR-4 gene expression ([2]; FIG. 9 A): significantly down-regulated
- MyD88 gene expression ([2]; FIG. 9 B): significantly down-regulated
- NF-κB gene expression ([2]; FIG. 9 C): significantly down-regulated
- kidney edema [3]: not significantly ameliorated
- acute lung injury (cytokine-infused rats): reduce acute lung injury
- level of inflammatory factors in BALF (IL-6, TNF-α, IL-1β) [4]: reduced the level of inflammatory factors in BALF
- GSH level (A549 cells): protected the cells from decreases in the GSH level
- NF-κB activation (A549 cells): inhibited NF-κB activation
- IL-1β release in blood [5, 7]: significantly reduced
- IL-6 release in blood [5, 7]: significantly reduced
- IL-6 release in blood [5, 8]: significantly reduced
- TNF-α release in blood [5, 8]: significantly reduced
- arterial partial pressure of oxygen ([6]; different concentrations of EGT, FIG. 7 G): significantly improved
- inflammatory factor levels in BALF (IL-1β, IL-6 and TNF-α) ([6]; four groups with different concentrations of ergothioneine, FIG. 7 A-C): reduced inflammatory factor levels in BALF
